Calls of active or inactive are those of the source. No cut-off for these calls is given here.

A word on the EC50: it is the concentration needed to bring the measured effect to its halfway point. A lower EC50 goes with greater potency.

The test system of test [1] is Rattus norvegicus. Description: T4 level in rats at 24 hr r after 30 mg/kg oral dose. It counts as functional.
The next test relates to Mus musculus. The test can be described thus: Hypoglycemic activity in db/db mouse model after 7 days at 10 mg/kg/day oral dose. It counts as functional.
Test [2] in a line: In vitro evaluation against RXR-alpha/PPAR-gamma in CV-1 cells by cotransfection assay was determined. It is filed as cell-based.
Test [3] relates to Rattus norvegicus. The test can be described thus: Triglyceride level in rats 2 hr r after 30 mg/kg oral dose.
Test [4] concerns the target T1, Retinoic acid receptor RXR-alpha (Rattus norvegicus, UniProt Q05343).
T1 sequence (Q05343 whole entry): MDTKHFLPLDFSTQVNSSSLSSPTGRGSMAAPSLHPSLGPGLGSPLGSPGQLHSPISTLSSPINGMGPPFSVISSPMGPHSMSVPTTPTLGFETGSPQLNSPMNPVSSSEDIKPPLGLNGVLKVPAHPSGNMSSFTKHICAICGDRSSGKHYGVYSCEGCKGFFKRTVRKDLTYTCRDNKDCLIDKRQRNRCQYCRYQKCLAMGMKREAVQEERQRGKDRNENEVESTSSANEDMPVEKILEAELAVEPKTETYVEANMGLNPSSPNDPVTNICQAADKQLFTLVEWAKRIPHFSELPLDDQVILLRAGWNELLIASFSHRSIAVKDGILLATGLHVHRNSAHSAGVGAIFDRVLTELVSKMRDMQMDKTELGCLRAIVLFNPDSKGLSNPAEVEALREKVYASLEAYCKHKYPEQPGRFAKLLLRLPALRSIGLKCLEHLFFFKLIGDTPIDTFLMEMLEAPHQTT
The test can be described thus: In vitro transcriptional activation in CV-1 cells expressing RXR-alpha; No activity. It counts as cell-based.

The subject of a further test is CV-1. Description: In vitro evaluation against RXR-alpha/PPAR-gamma in CV-1 cells by cotransfection assay. It counts as cell-based.
The nature of test [5]: In vitro transcriptional activation in CV-1 cells expressing RXR-alpha and PPARgamma; No activity. It counts as cell-based, Rattus norvegicus.
The target of test [6] is T2, Retinoic acid receptor RXR-alpha (Rattus norvegicus) (UniProt Q05343).
T2 sequence (whole entry): T1 sequence (Q05343 whole entry)
The following applies: CV-1.

Regarding `CN(CCOc1ccc(CC2SC(=O)NC2=O)cc1)c1ccccn1` (stereo not drawn) [ROSIGLITAZONE], in the test with Rattus norvegicus [1], the T4 worked out at 70 ng/mL. In the test with Mus musculus, this molecule came in with an Activity of 412 mg/dL. This molecule gave an EC50 in test [2] of 325 nM. For the same molecule, the Triglycerides in the test with Rattus norvegicus [3] stood at 78 mg/dL. The Ki entry in test [4] and in test [5] was “Not Active” throughout. In the test on CV-1, this molecule came in with an Efficacy of 100%. The Synergy result in test [6] was “inactive”.

The values are drawn from ChEMBL document CHEMBL1144879, “Design, synthesis, and structure-activity relationship studies of novel 6,7-locked-[7-(2-alkoxy-3,5-dialkylbenzene)-3-methylocta]-2,4,6-trienoic acids” (J Med Chem, 2003).
